Entries after “also recorded” stand apart in the source; their conditions may differ.

In experiment [1] the test system is NHEKs, Neonatal Human Epidermal Keratinocytes. As to the kind of experiment: Reprogramming of NHEKs (TRA-1-81 positive iPSC colonies). In kind it is cell-based. Conditions: for generation of iPSCs / enhancement of reprogramming under OK condition (in words): 2TFs (OK). On the procedure: NHEKs were cultured in a 100 mm tissue culture dish and transduced 3 times (3-4 hours each transduction) with freshly produced lentivirus supernatants. 1,000,000 transduced NHEKs were seeded on the irradiated x-ray inactivated CF1 MEF feeder cells in a 100-mm dish and cultured in KCM and treated with 5 μM PS48, 0.25 mM NaB (Stemgent) and 0.5 μM A-83-01 (Stemgent) for 2 weeks, followed by changing half volume of media to hESCM and supplementing with 5 μM PS48, 0.25 mM NaB and 0.5 μM A-83-01 for another 2 weeks. Then cell culture media were changed to hESCM and supplemented with 5 μM PS48, 0.25 mM NaB, 0.5 μM A-83-01 and 0.5 μM PD0325901 (Stemgent) for additional four weeks. The same OCT4 infected keratinocytes cultured in media without chemicals were used as a control. The culture was split by Accutase (Millipore) and treated with 1 μM Thiazovivin (Stemgent) in the first day after splitting. The iPSC colonies stained positive by Alexa Fluor 555 Mouse anti-Human TRA-1-81 antibody (BD Pharmingen) were picked up for expansion on feeder cells in hESCM and cultured routinely.
NHEKs, Neonatal Human Epidermal Keratinocytes; HUVECs, Human Umbilical Vein Endothelial Cells; AHEKs, Adult Human Epidermal Keratinocytes; AFDCs, Amniotic Fluid Derived Cells. Chemical concentration used: PD, 0.5 μM PD0325901; A83, 0.5 μM A-83-01; PS48, 5 μM PS48; VPA, 0.5 mM Valproic acid; NaB, 0.25 mM Sodium butyrate; Par, 2 μM Parnate; CHIR, 3 μM CHIR99021. For four-factor or three-factor induced reprogramming, NHEKs were seeded at a density of 100,000 transduced cells per 10 cm dish and positive colonies were counted four-week later; For two-factor induced reprogramming, NHEKs were seeded at a density of 100,000 transduced cells per 10 cm dish and positive colonies were counted six-week later; For one-factor induced reprogramming, NHEKs and AHEKs were seeded at a density of 1,000,000 transduced cells per 10 cm dish and positive colonies were counted eight-week later; HUVECs and AFDCs were seeded at a density of 200,000 transduced cells per 10 cm dish and positive colonies were counted six-week later.

For experiment [2], the system named is human primary fibroblasts (CRL2097 or BJ). As to the kind of experiment: iPSC induction from human primary fibroblasts transduced with the four reprogramming factors, with compound treatment. In kind it is cell-based. Conditions: for effect on reprogramming (in words): 4 factor-mediated reprogramming of fibroblasts. On the procedure: We tested known inhibitors of the TGFβ receptor and MEK on 1×10^4 (Feng, B. et al., Cell Stem Cell 4, 301-12 (2009)) human primary fibroblasts (CRL2097 or BJ) that were retrovirally transduced with the 4TFs, for their effect on reprogramming kinetics and efficiency (see FIG. 1a for details). On day 7 (D7) post-infection, the compounds were added, individually or in combinations, and the cultures were examined for iPSCs over the next 1-3 weeks.
The Slc7a1-expressing human fibroblast cells were seeded at 1×10^5 cells/well of a 6 well plate on the day 1. On day 2, 0.25 ml of each retroviral supernatant was added to the cells in the presence of 6 μg/ml polybrene. A second round of transduction was done on day 3. Infection efficiency was estimated by fluorescence microscopy on cells transduced in parallel with GFP or RFP gene-carrying retroviruses. Seven days after initial transduction, fibroblasts were harvested by trypsinization and re-plated at 1×10^4 cells/well of a 6 well plate coated with matrigel (1:50 dilution, cat 354234, BD Biosciences). For compound treatment, the cells were cultured in human reprogramming medium (DMEM/F12, 20% Knockout serum replacer, 1×MEM Non-Essential amino acid, lx glutamax, 0.11 mM 2-Mercaptoethanol, 20 ng/ml bFGF and 1,000 U/ml LIF) and were treated with 2 μM SB431542 (Stemgent), 0.5 μM PD0325901 (Stemgent), 0.5 μM Thiazovivin, or combinations of the compounds. The media were changed every 2-3 days depending on the cell density. Seven days after compound treatment, either the plates were fixed and stained for Alkaline phosphatase (ALP) activity, or stained for protein markers, or the cultures were continued with or without indicated splitting by trypsinization till day 30. For split cultures, the cells were split (1:4) and re-plated onto irradiated CF-1 MEF feeder layer (2.5×10^5 cells/well) in each well of 6 well plate and were split (1:10) again on day 21. The cells were maintained in the same media and compound cocktail described above except for the concentrations of PD0325901 (0.5 μM for D14 and 1 μM for D21) and SB431542 (0.5-1 μM after D14). The iPSC colonies were subsequently maintained in conventional hESC media in the absence of the above compounds.
Alkaline phosphatase staining was performed using ALP detection kit (cat no: SCR004, Chemicon) according to the product instructions. For immunocytochemistry, cells were fixed in 4% paraformaldehyde (10 min, RT), washed twice with PBS, blocked using 5% normal donkey serum (Chemicon) and 0.1% TritonX-100 (15 min, RT) and then treated with primary antibodies overnight at 4° C. The primary antibodies used were anti-NANOG (cat no: AB9220, Chemicon, 1:1,000); anti-OCT4 (cat no: sc-5279, Santa Cruz biotech, 1:200), anti-SSEA 4 (cat no: mab4304, Chemicon, 1:500), anti-Tra-1-81 (cat 560123, BD Biosciences, 1:100), anti-Tra-1-81 (mAb 4381, Chemicon, 1:500), anti-βIII TUBULIN (cat no: MMS-435P, Covance Research Products Inc, 1:1000), anti-PDX 1 (1:500) (a kind gift from Dr. C. Wright), anti-BRACHYURY (cat No: AF2085, R & D, final concentration 0.2 μg/ml). The cells were washed twice with PBS and then treated with secondary antibodies for 1 hour at room temperature. The secondary antibodies used were Alexa fluor 488 donkey anti-rabbit or anti-mouse IgG (Invitrogen, 1:1,000) and Alexa fluor 555 donkey anti-rabbit or anti-mouse IgG (Invitrogen, 1:1,000). Nuclei were stained with 0.5 μg/ml DAPI (Sigma). Images were captured using a Nikon Eclipse TE2000-U/X-cite 120 EXFO microscope with a photometric CoolSnap HQ2 camera.

For the compound `CCCC(=O)[O-].[Na+]` [NaB, Sodium butyrate], the “generation of iPSCs / enhancement of reprogramming under OK condition (in words)” value in experiment [1] was “substantially enhance reprogramming; also recorded: much more reliable and efficient”.
As for `O=C(NOC[C@H](O)CO)c1ccc(F)c(F)c1Nc1ccc(I)cc1F` [PD0325901], in experiment [2] (4TFs, D14, no splitting), the “NANOG+ colonies at day 14” value is “no NANOG^+ colonies”.
`O=C(O)/C=C(/CCc1ccc(Cl)cc1)c1ccccc1` [PS48]: the “generation of iPSCs / enhancement of reprogramming under OK condition (in words)” value in experiment [1] is on record as “substantially enhance reprogramming”. The “enhancement of the reprogramming efficiency” value in experiment [1] (two factors/OK, with 0.5 μM PD0325901 and 0.5 μM A-83-01) is “about fifteen fold”.
Regarding `NC(=O)c1ccc(-c2nc(-c3ccc4c(c3)OCO4)c(-c3ccccn3)[nH]2)cc1` [SB431542], the “dose dependence of the effect on iPS cell generation” value in experiment [2] (4TFs) was “dose dependent”. Further, the “ALP+ colonies with hESC-like morphology” value in experiment [2] (4TFs, 1×10^4 cells, day 7 post-treatment (D14), SB431542 2 μM, PD0325901 0.5 μM) is listed as 1-2 colonies. The “number of granulate (partially reprogrammed) colonies” value in experiment [2] (4TFs, 30 days without splitting) is listed as “outnumbered by several fold the few hESC-like colonies”.
On to `Cc1ccc2c(c1)C(=O)C1(O)CCN(c3ccccc3)C1=N2` (stereo not drawn) [blebbistatin], for which the “effect on reprogramming (in words)” value in experiment [2] is reported as “can be substituted for SB431542 (an ALK5 inhibitor), albeit with a reduced effect”.
Turning to TGFβ, the “effect on reprogramming (in words)” value in experiment [2] is “inhibitory effect”.

For the origin of these results see patent publication US12195762B2, “Induction of pluripotent cells” (The Scripps Research Institute, priority 2009, dated 2025).
